ChEMBL document CHEMBL1201862, “PubChem BioAssay data set” (2004)
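Each compound was tested at five concentrations against cells in 96-well plates for 48 hours. GI50 is the concentration that inhibits growth by half.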 Active and inactive are the calls of the source. Rule as the data show it: active = GI50 up to about 1.1 µM and inactive = higher.

Tests used:
Test in all cases: NCI anticancer screen, dose series, 48 h
CAKI-1 = system: CAKI-1
COLO 205 = system: COLO 205
DU-145 = system: DU-145
HCT-116 = system: HCT-116
HOP-62 = system: HOP-62
KM12 = system: KM12
LOX IMVI = system: LOX IMVI
MCF7 = system: MCF7
MDA-MB-231 = system: MDA-MB-231
MDA-N = system: MDA-N
NCI-H23 = system: NCI-H23
OVCAR-4 = system: OVCAR-4
RPMI-8226 = system: RPMI-8226
SF-295 = system: SF-295
SNB-19 = system: SNB-19
T47D = system: T47D
UO-31 = system: UO-31
HL-60 = system: HL-60
SK-MEL-5 = system: SK-MEL-5
RXF 393 = system: RXF 393

Row | SMILES | GI50 (CAKI-1) | GI50 (COLO 205) | GI50 (DU-145) | GI50 (HCT-116) | GI50 (HOP-62) | GI50 (KM12) | GI50 (LOX IMVI) | GI50 (MCF7) | GI50 (MDA-MB-231) | GI50 (MDA-N) | GI50 (NCI-H23) | GI50 (OVCAR-4) | GI50 (RPMI-8226) | GI50 (SF-295) | GI50 (SNB-19) | GI50 (T47D) | GI50 (UO-31) | GI50 (HL-60) | GI50 (SK-MEL-5) | GI50 (RXF 393)
1 | O=c1ccn(C2OC(CN(O)CCC3C(O)C(CO)OC3n3ccc(=O)[nH]c3=O)C(O)C2O)c(=O)[nH]1 (stereo not drawn) | > 100 µM (inactive) | > 100 µM (inactive) | > 100 µM (inactive) | > 100 µM (inactive) | > 100 µM (inactive) | > 100 µM (inactive) | > 100 µM (inactive) | > 100 µM (inactive) | > 100 µM (inactive) | > 100 µM (inactive) | > 100 µM (inactive) | > 100 µM (inactive) | > 100 µM (inactive) | > 100 µM (inactive) | > 100 µM (inactive) | > 100 µM (inactive) | > 100 µM (inactive) |  |  | 
2 | CN(C)CCN(C)P12(Oc3ccccc3O1)Oc1c(Cl)c(Cl)c(Cl)c(Cl)c1O2 |  | > 100 µM (inactive) | 85.5 µM (inactive) | 33.2 µM (inactive) | 45 µM (inactive) |  | 63 µM (inactive) | 33.7 µM (inactive) | 69.8 µM (inactive) | 48.4 µM (inactive) | 35.8 µM (inactive) | 33.5 µM (inactive) | 29.1 µM (inactive) | 37.1 µM (inactive) | 56.6 µM (inactive) | 59.8 µM (inactive) | 39.1 µM (inactive) | 18.8 µM (inactive) | 58.6 µM (inactive) | 
3 | C=CCC1NCCC2=C1C(S(=O)(=O)c1ccc(C)cc1)c1ccccc12 (stereo not drawn) | 6.92 µM (inactive) | 2 µM (inactive) | 11.9 µM (inactive) | 11.1 µM (inactive) | 14.5 µM (inactive) | 9.46 µM (inactive) | 8.91 µM (inactive) | 7.13 µM (inactive) | 12.1 µM (inactive) | 6.9 µM (inactive) | 18 µM (inactive) | 12.1 µM (inactive) | 5.55 µM (inactive) | 13.7 µM (inactive) | 16.5 µM (inactive) | 10.4 µM (inactive) | 7.67 µM (inactive) |  | 14.3 µM (inactive) | 5.66 µM (inactive)
4 | c1csc(-c2nn3c(C45CC6CC(CC(C6)C4)C5)nnc3s2)c1 | > 100 µM (inactive) | > 100 µM (inactive) | > 100 µM (inactive) | > 100 µM (inactive) | > 100 µM (inactive) |  | > 100 µM (inactive) |  | > 100 µM (inactive) | > 100 µM (inactive) | > 100 µM (inactive) | > 100 µM (inactive) | > 100 µM (inactive) | > 100 µM (inactive) | > 100 µM (inactive) | > 100 µM (inactive) | 47.5 µM (inactive) | > 100 µM (inactive) | 93.3 µM (inactive) | > 100 µM (inactive)
5 | Cc1cc2c(c(C(=O)NCC(=O)N[C@@H](C)C(=O)OCc3ccccc3)c1)Oc1c(cc(C)cc1C(=O)NCC(=O)N[C@@H](C)C(=O)OCc1ccccc1)S2 | > 100 µM (inactive) | > 100 µM (inactive) | > 100 µM (inactive) | > 100 µM (inactive) | 71.3 µM (inactive) | > 100 µM (inactive) |  | > 100 µM (inactive) | 34.4 µM (inactive) | > 100 µM (inactive) | > 100 µM (inactive) | > 100 µM (inactive) | 43.3 µM (inactive) | > 100 µM (inactive) | > 100 µM (inactive) | 2.41 µM (inactive) | > 100 µM (inactive) |  | > 100 µM (inactive) | 20.1 µM (inactive)
6 | Cc1n(CC(C)C)c2c([n+]1C)C(=O)c1ccccc1C2=O | 1.17 µM (inactive) | < 0.0152 µM (active) | 0.203 µM (active) | 0.0494 µM (active) | 0.131 µM (active) | 0.205 µM (active) | 0.0746 µM (active) |  | 0.0486 µM (active) | 0.166 µM (active) | 0.0374 µM (active) | 0.0594 µM (active) | 0.0628 µM (active) | 0.415 µM (active) | 0.0716 µM (active) | 0.0371 µM (active) | 1.29 µM (inactive) | 0.0405 µM (active) | 0.0473 µM (active) | 0.811 µM (active)
7 | Oc1ccc2ccccc2c1/N=N/c1ccc(/N=N/c2ccccc2)cc1 | > 100 µM (inactive) | > 100 µM (inactive) | > 100 µM (inactive) | 93.1 µM (inactive) | > 100 µM (inactive) | 84.9 µM (inactive) | > 100 µM (inactive) |  | 89.1 µM (inactive) | 50 µM (inactive) | > 100 µM (inactive) | > 100 µM (inactive) | > 100 µM (inactive) | > 100 µM (inactive) | > 100 µM (inactive) | > 100 µM (inactive) | 59 µM (inactive) | 0.43 µM (active) | > 100 µM (inactive) | > 100 µM (inactive)
8 | CC12C(=O)CC(CC1=O)C2(C)C | > 100 µM (inactive) | > 100 µM (inactive) | > 100 µM (inactive) | > 100 µM (inactive) | > 100 µM (inactive) | > 100 µM (inactive) | > 100 µM (inactive) | > 100 µM (inactive) |  | > 100 µM (inactive) |  | > 100 µM (inactive) | > 100 µM (inactive) | > 100 µM (inactive) | > 100 µM (inactive) | > 100 µM (inactive) | > 100 µM (inactive) | > 100 µM (inactive) | > 100 µM (inactive) | 
9 | [N-]=[N+]=Nc1ccccc1-c1ccccc1[N+](=O)[O-] | > 100 µM (inactive) |  | 88.5 µM (inactive) | 43 µM (inactive) | 87.9 µM (inactive) | 49.2 µM (inactive) | 48.6 µM (inactive) | 52 µM (inactive) | 50.2 µM (inactive) | 30.9 µM (inactive) | 35.1 µM (inactive) | 72.9 µM (inactive) | 26 µM (inactive) | 73.3 µM (inactive) | > 100 µM (inactive) | 38.4 µM (inactive) | 72.8 µM (inactive) |  |  | 86.1 µM (inactive)
10 | CCC(=O)Nc1ccc(NCC(=O)Nc2ccc(OC)cc2)cc1 | 13.5 µM (inactive) | 31.8 µM (inactive) | 31.8 µM (inactive) | 26.1 µM (inactive) | 2.99 µM (inactive) | 17.4 µM (inactive) | 16.6 µM (inactive) | 17.1 µM (inactive) |  | 29.8 µM (inactive) | 19.9 µM (inactive) | 13.2 µM (inactive) | 32.9 µM (inactive) | 46.7 µM (inactive) | 13.2 µM (inactive) | 21.1 µM (inactive) | 45.5 µM (inactive) | 28.2 µM (inactive) | 17.5 µM (inactive) | 16.4 µM (inactive)
11 | COC1CC(OC2C(C)OC(OC3C(C)OC(OC4C(O)CC(O[C@H]5CC[C@@]6(C)C(=CC[C@]7(O)[C@@H]6C[C@@H](OC(C)=O)[C@@]6(C)[C@]7(O)CC[C@@]6(O)C(C)=O)C5)OC4C)CC3OC)CC2OC)OC(C)C1O (stereo partly drawn) | > 12.5 µM (inactive) | > 12.5 µM (inactive) | > 12.5 µM (inactive) | > 12.5 µM (inactive) | > 12.5 µM (inactive) | > 12.5 µM (inactive) | > 12.5 µM (inactive) | > 12.5 µM (inactive) | > 12.5 µM (inactive) | > 12.5 µM (inactive) | > 12.5 µM (inactive) | > 12.5 µM (inactive) | > 12.5 µM (inactive) | > 12.5 µM (inactive) | > 12.5 µM (inactive) | > 12.5 µM (inactive) | 5.61 µM (inactive) | > 12.5 µM (inactive) | > 12.5 µM (inactive) | 
12 | COc1ccc(O)c(/C(C)=N/NC(=S)N(C)C)c1 | 16.7 µM (inactive) | 21.3 µM (inactive) | 44 µM (inactive) | 19.6 µM (inactive) | 21.9 µM (inactive) | 42 µM (inactive) | 4.48 µM (inactive) |  | > 20.6 µM (inactive) | > 73.3 µM (inactive) | 24.7 µM (inactive) | 2.63 µM (inactive) | 47.4 µM (inactive) | 31.3 µM (inactive) | 40.5 µM (inactive) | 40.9 µM (inactive) | 17.7 µM (inactive) | 56 µM (inactive) | 9.18 µM (inactive) | > 100 µM (inactive)
13 | OC(Cc1ccc2ccccc2n1)(C(F)(F)F)C(F)(F)F | > 10 µM (inactive) | > 10 µM (inactive) | > 10 µM (inactive) | > 10 µM (inactive) | > 10 µM (inactive) | > 10 µM (inactive) | > 10 µM (inactive) | > 10 µM (inactive) | > 10 µM (inactive) | > 10 µM (inactive) | > 10 µM (inactive) | > 10 µM (inactive) | > 10 µM (inactive) | > 10 µM (inactive) | > 10 µM (inactive) | > 10 µM (inactive) | > 10 µM (inactive) |  | > 10 µM (inactive) | 
14 | CCOC(OCC)[C@@H]1C[C@@H]2N(O[C@H](OC3CCCC3(c3ccccc3)c3ccccc3)[C@H](OC(C)=O)[C@@]2(CC)Cc2ccc(OC)c(OC)c2)O1 (stereo partly drawn) | > 100 µM (inactive) | > 100 µM (inactive) | > 100 µM (inactive) | > 100 µM (inactive) | > 100 µM (inactive) | > 100 µM (inactive) | > 100 µM (inactive) | > 100 µM (inactive) | > 100 µM (inactive) | > 100 µM (inactive) | > 100 µM (inactive) | > 100 µM (inactive) |  | > 100 µM (inactive) | > 100 µM (inactive) | > 100 µM (inactive) | > 100 µM (inactive) |  | > 100 µM (inactive) | > 100 µM (inactive)
15 | O=C1CSC(c2ccc([N+](=O)[O-])cc2)N1c1ccc(-n2c(-c3ccccc3)nc3ccccc3c2=O)cc1 (stereo not drawn) | 64.6 µM (inactive) | > 100 µM (inactive) | > 100 µM (inactive) | 61.9 µM (inactive) | > 100 µM (inactive) | 31.7 µM (inactive) | > 100 µM (inactive) | 73.5 µM (inactive) | 70.3 µM (inactive) | > 100 µM (inactive) | > 100 µM (inactive) | 21.3 µM (inactive) | > 100 µM (inactive) | > 100 µM (inactive) | > 100 µM (inactive) | 22.5 µM (inactive) | 2.56 µM (inactive) | > 100 µM (inactive) | 82.2 µM (inactive) | 
